From patent US20150202329A1, “Methods and Composition for Detecting Intestinal Cell-Barrier Dysfunction” (priority 2012, published 2015)
“Also recorded” adds a separate entry of the source.

Experiments:
[1] = in vivo; cited from earlier work
T84 monolayers [2] = assay: Trans-epithelial electrical resistance (TER) of T84 monolayers; format: cell-based, human
Source text: (§1) To determine whether this form of cell extrusion results in loss of barrier function, we measured the trans-epithelial electrical resistance (TER). […] Given that the breach in the T84 monolayers appeared to be 1-2 μm in diameter on TEM images, we evaluated the epithelial integrity to microparticles (1 μm Fluoresbrite® Microspheres) and microbes (E. coli […]) using the lowest dose of nigericin treatment. […] Fluoresbrite microspheres and E. coli TMW2.497 were recovered in the media from basolateral well.
T84 human colon cancer epithelial cells were maintained in tissue culture plates (10 cm) in Dulbecco's minimal essential medium (DMEM)/F-12, 10% (v/v) heat-inactivated fetal bovine serum (FBS), 1%(w/v) penicillin-streptomycin. The cells were plated onto Transwells (2×10^5 cells/well, 6.5 mm diameter; 0.4 μm-pore size; Corning Life Sciences, Tewksbury, Mass.) and grown until development of apical junctional complexes (as indicated by a transepithelial resistance of >2,000 Ω·cm^2) for studies. For caspase-1 inhibition experiment, prior to nigericin treatment, the tissue culture medium was removed and fresh medium with 50 µM caspase-1 inhibitor (Ac-YVAD-CMK) was introduced. Nigericin (10, 25, 50 µM) was added to both the apical and basolateral aspect of the Transwell. […] For microspheres and […] experiments, after overnight incubation with nigericin, 10^7/ml of 1 μm Microspheres or 10^9/ml E. coli TMW2.497 were added to the apical aspect of Transwell. One hour after incubation with the microspheres or E. coli, the cells were fixed in cold methanol for 5 minutes. Cells were then permeabilized in 0.2%(v/v) Triton X-100 for 15 min and blocked for one hour in PBS with 0.2% (v/v) goat serum and 1%(w/v) BSA.

T84 monolayers [3] = assay: Movement of microspheres and E. coli across the T84 monolayer in Transwell; format: cell-based, human; conditions: nigericin 10 μM overnight (lowest dose)
Source text: as §1
T84 human colon cancer epithelial cells were maintained in tissue culture plates (10 cm) in Dulbecco's minimal essential medium (DMEM)/F-12, 10% (v/v) heat-inactivated fetal bovine serum (FBS), 1%(w/v) penicillin-streptomycin. The cells were plated onto Transwells (2×10^5 cells/well, 6.5 mm diameter; 0.4 μm-pore size; Corning Life Sciences, Tewksbury, Mass.) and grown until development of apical junctional complexes (as indicated by a transepithelial resistance of >2,000 Ω·cm^2) for studies. For caspase-1 inhibition experiment, prior to nigericin treatment, the tissue culture medium was removed and fresh medium with 50 µM caspase-1 inhibitor (Ac-YVAD-CMK) was introduced. […] Transepithelial resistance (TER) was measured at before and 3 h after Nigericin treatment, using a Millicell-ERS Voltmeter and chopstick electrodes (Millipore, Bedford, Mass.). […]

polarized T84 monolayers = assay: Caspase-1 activation and cell extrusion in nigericin-treated polarized T84 monolayers (FLICA 1 staining, Western blot); format: cell-based, human
Source text: To investigate the morphology of caspase-1-induced IEC extrusion, we applied nigericin, a well-established Nlrp3-dependent inflammasome activator to polarized T84 monolayers. […] Active caspase-1 expression in nigericin-treated T84 cells was confirmed by Western blot analysis (FIG. 1b).
T84 human colon cancer epithelial cells were maintained in tissue culture plates (10 cm) in Dulbecco's minimal essential medium (DMEM)/F-12, 10% (v/v) heat-inactivated fetal bovine serum (FBS), 1%(w/v) penicillin-streptomycin. The cells were plated onto Transwells (2×10^5 cells/well, 6.5 mm diameter; 0.4 μm-pore size; Corning Life Sciences, Tewksbury, Mass.) and grown until development of apical junctional complexes (as indicated by a transepithelial resistance of >2,000 Ω·cm^2) for studies. For caspase-1 inhibition experiment, prior to nigericin treatment, the tissue culture medium was removed and fresh medium with 50 µM caspase-1 inhibitor (Ac-YVAD-CMK) was introduced. Nigericin (10, 25, 50 µM) was added to both the apical and basolateral aspect of the Transwell. Transepithelial resistance (TER) was measured at before and 3 h after Nigericin treatment, using a Millicell-ERS Voltmeter and chopstick electrodes (Millipore, Bedford, Mass.). […]

IL-10 KO mice [4] = assay: IEC extrusion measured as epithelial gap density by confocal endomicroscopy in IL-10 KO mice; format: in vivo, mouse; conditions: 10 mg/kg intraperitoneal, 4, 7 and 10 days
Description: (§2) To evaluate the effect of caspase-1 inhibition on IEC extrusion over time in vivo, we treated the IL-10 KO mice with a selective caspase-1 inhibitor Ac-YVAD-CMK (10 mg/kg) over 4, 7 and 10 day (5 times the mean lifespan of rodent)enterocytes^40) via intraperitoneal injections. The control IL-10 KO group received 10 days of equal volume of 2% (v/v) DMSO.
Confocal laser endomicroscopy of the mouse ileum and confocal microscopy of whole mount mouse intestinal tissues for determination of epithelial gap density were performed using previously described methods. Cell culture, human and mouse intestinal slides were imaged using a spinning disc confocal microscope (Quorum Technologies Inc, Guelph, ON) using previously described methods.

IL-10 KO mice [5] = assay: Permeation of orogavaged 0.5 μm microspheres into blood of IL-10 KO mice; format: in vivo, mouse; conditions: 10 mg/kg, day 7
Description: as §2
For microsphere studies, mice were gavaged with a mixture containing 10^7 Fluoresbrite® YG Microspheres with diameter of 0.5, 1.0, 2.0, 3.0, and 6.0 μm in 200 μl solution as previously described after an overnight fast. Blood samples were collected 4 hours post-administration of the beads. Whole blood mixture was then centrifuged at 1,250×g in pre-heparinized tubes for 10 min at RT, the plasma portion of the samples were removed and centrifuged at 1,250×g for 5 min before flow cytometry analysis. The remaining buffy coat and hematocrit of the samples were lysed with 5 mL of lysing buffer (4.15 g NH4Cl, 0.84 g NaHCO3, 1 ml […] EDTA at pH 8, and 500 mL of ddH2O) at RT, mixed and centrifuged at 1,250×g for 5 min at 4° C.×3. The supernatant was discarded. The WBC pellet was re-suspended in 400 μl of 0.03% PBS with Fetal Bovine Albumin. The plasma and WBC pellet samples were analyzed with flow cytometry for determination of microsphere counts.

In the case of `CO[C@@H]1C[C@@H](C[C@H]2CC[C@H](C)[C@H]([C@@H](C)C(=O)O)O2)O[C@]2(O[C@](C)([C@H]3CC[C@@](C)([C@@H]4O[C@@H]([C@H]5O[C@@](O)(CO)[C@H](C)C[C@@H]5C)C[C@@H]4C)O3)C[C@H]2C)[C@@H]1C` [nigericin, Nigericin], the systemic toxicity [1] is listed as “significant systemic toxicity”, the “TER of T84 monolayers (barrier function)” value (T84 monolayers [2]; nigericin 10, 25, 50 μM, 3 h) is listed as “dose-dependent reduction in TER; also recorded: dose-dependent barrier dysfunction developed” and the “TER as measured by ECIS over time” value (T84 monolayers [2]; nigericin, overnight) is listed as “time-dependent reduction in TER”. The “movement of 1 μm microspheres and E. coli TMW2.497 across the monolayer” value (T84 monolayers [3]) was “Movements of microspheres and E. coli from the upper chamber through the monolayer to the lower chamber of the Transwell were observed”, the “active caspase-1 (p10) expression by Western blot” value (polarized T84 monolayers; nigericin 50 μM, T84 cells) was “increased active caspase-1 (p10) expression” and the “activated caspase-1 and cell extrusion by FLICA 1 staining” value (polarized T84 monolayers; nigericin, 3-hours post-treatment) was “increased activated caspase-1 and cell extrusion”.

In the case of Ac-YVAD-CMK, the “IEC extrusion as epithelial gap density” value (IL-10 KO mice [4]) is reported as “Time-dependent reduction in IEC extrusion”, the “permeation of orogavaged 0.5 μm latex microspheres into blood” value (IL-10 KO mice [5]) is reported as “normalization of permeation” and the “reversal of nigericin-induced TER reduction measured by ECIS” value (T84 monolayers [2]; nigericin 25 μM, overnight) is reported as “reversed”. The “reversal of nigericin-induced TER reduction / barrier dysfunction” value (T84 monolayers [2]; pre-treatment with caspase-1 inhibitor, nigericin 25 μM, 3 hours and overnight) was “reversed; also recorded: abrogated”.
